According to patent US11331364B2, “Use for JNK inhibitor molecules for treatment of various diseases” (Xigen Inflammation Ltd., priority 2014, dated 2022):
Read-outs that look alike come from different tables or passages of the source. Blank lines part the entries; values can stand above or below the compound they belong to. Square brackets hold non-standard residues; d marks the D form. Peptide text beside a SMILES is read from it.

How the values were obtained:
hJNK2 = hJNK2 (Homo sapiens, UniProt P45984); assay: hJNK2 | IC50
hJNK2, sequence (P45984 whole entry, looked up, the tested form may be a part): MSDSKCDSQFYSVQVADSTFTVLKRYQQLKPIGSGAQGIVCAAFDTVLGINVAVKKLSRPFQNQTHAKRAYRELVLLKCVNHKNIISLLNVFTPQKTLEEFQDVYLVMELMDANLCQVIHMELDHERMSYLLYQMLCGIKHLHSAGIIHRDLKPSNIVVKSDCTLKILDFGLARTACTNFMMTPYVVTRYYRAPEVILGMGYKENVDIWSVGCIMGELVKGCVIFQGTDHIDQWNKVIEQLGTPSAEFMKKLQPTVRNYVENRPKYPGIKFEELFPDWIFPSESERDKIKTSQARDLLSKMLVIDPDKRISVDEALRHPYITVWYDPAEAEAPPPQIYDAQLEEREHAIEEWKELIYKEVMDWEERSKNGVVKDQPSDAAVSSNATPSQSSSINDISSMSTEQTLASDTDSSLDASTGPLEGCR
Method in brief: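 JNK inhibitors tested as fusion proteins of a JNK-inhibitory (poly)peptide and a transporter sequence; IC50 reported in the nM range with SEM and number of experiments.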

hJNK3 = hJNK3 (Homo sapiens, UniProt P53779); assay: hJNK3 | IC50
hJNK3, sequence (P53779 whole entry, looked up): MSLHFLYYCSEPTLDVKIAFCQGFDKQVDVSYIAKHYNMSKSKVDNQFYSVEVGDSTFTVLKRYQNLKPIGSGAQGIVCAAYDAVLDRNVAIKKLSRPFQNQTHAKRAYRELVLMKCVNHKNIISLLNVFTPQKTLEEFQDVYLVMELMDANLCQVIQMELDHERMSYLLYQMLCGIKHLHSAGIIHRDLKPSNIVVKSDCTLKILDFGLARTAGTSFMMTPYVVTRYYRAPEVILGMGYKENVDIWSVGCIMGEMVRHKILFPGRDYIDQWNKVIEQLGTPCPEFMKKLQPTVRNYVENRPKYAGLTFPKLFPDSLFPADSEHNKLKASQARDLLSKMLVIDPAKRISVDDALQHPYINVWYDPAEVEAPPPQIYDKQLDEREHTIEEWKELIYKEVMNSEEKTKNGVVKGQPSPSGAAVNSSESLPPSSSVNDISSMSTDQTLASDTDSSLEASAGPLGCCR

hJNK1 = molecular target: T1, hJNK1 (Homo sapiens, UniProt P45983); assay: hJNK1 | IC50
T1 construct: His; purchased Upstate 14-327
T1 sequence (P45983 whole entry, looked up): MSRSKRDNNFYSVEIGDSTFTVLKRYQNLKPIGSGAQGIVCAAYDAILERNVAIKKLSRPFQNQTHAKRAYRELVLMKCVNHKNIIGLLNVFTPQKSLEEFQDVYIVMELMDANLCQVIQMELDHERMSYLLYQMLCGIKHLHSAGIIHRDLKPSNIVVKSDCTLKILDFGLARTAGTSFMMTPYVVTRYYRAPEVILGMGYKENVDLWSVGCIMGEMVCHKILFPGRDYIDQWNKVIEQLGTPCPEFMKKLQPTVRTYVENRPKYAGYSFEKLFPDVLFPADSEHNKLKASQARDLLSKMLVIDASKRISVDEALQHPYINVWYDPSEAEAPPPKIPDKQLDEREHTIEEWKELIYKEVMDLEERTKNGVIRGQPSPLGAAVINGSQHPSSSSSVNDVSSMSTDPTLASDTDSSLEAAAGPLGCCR

[1] = tested on: Endotoxin-Induced Uveitis (EIU) model in rats; assay: Action duration in endotoxin-induced uveitis (EIU), clinical scoring and PMN cells quantification; assay type: in vivo, rat; conditions: 2 mg/kg i.v. immediately before EIU induction
Description: […] (18) female Lewis rats (36 eyes) were randomly divided into 6 groups of 3 animals each. EIU was induced by a single footpad injection of 100 µl sterile pyrogen-free saline containing 200 µg of LPS (Lipopolysaccharides from Salmonella typhimurium, Sigma-Aldrich, France)(2 mg/ml).
Animals were treated 48 hours, 1 week, 2 weeks or 4 weeks before EIU induction by intravenous injection of the JNK inhibitor according to SEQ ID NO: 172 (“XG-104”) at a single dose of 1 mg/kg (dose volume 1 ml/kg) in the tail vein. Dexamethasone 2 mg/kg or vehicle (NaCl 0.9%) were injected intravenously immediately before EIU induction.
The effect of the JNK inhibitor according to SEQ ID NO: 172 (“XG-104”) on EIU was evaluated using clinical scoring and PMN cells quantification 24 hours after induction. Ocular examinations were performed by slit lamp at 24 hours i.e. at the clinical peak of the disease in this model. The intensity of clinical ocular inflammation was scored on a scale from 0 to 5 for each eye: • Grade 0: no inflammation, • Grade 1: presence of a minimal iris and conjunctival vasodilatation but without the observation of flare or cells in the anterior chamber (AC), • Grade 2: presence of moderate iris and conjunctival vessel dilation but without evident flare or cells in the AC, • Grade 3: presence of intense iris vessels dilation, flare and less than 10 cells per slit lamp, field in the AC, • Grade 4: presence of more severe clinical signs than grade 3, with more than 10 cells in the AC with or without the formation of a hypopyon, • Grade 5: presence of intense inflammatory reaction, fibrin formation in the AC and total seclusion of the pupil.
For histology, eighteen eyeballs (one per animal) were collected and fixed for 1 h at room temperature in phosphate buffered saline (PBS) containing 4% paraformaldehyde before being rinsed overnight in PBS. The next day, samples were embedded in optimal cutting temperature (OTC) compound (Tissue-Tek®, Sakura Finetek, Zoeterwoude, Netherland) and the optic nerve level using a cryostat (Leica CM 3050S, France) and mounted on super-frost slides for histology. After nuclei staining with DAPI (Sigma-Aldrich, France), sections were mounted in PBS/Glycerol (1/1) and observed by fluorescence photomicroscopy (FXA Microphot, Nikon, USA). Digitized micrographs were obtained usinga digital camera (Spot, BFI Optilas, France). PMN cells identified by the shape of their nuclei stained with DAPI, were quantified on histological sections. The analysis was performed with 2 different sections per eye at the optic nerve head level.
Twenty-four hours after LPS induction, clinical scores for the vehicle-treated rats were 4.6±0.2 (mean±SEM, n=8). Reduction was calculated as (grade in vehicle-treated eye—grade in test item treated eye)/(grade in vehicle-treated eye). A significant reduction (*p<0.05, **p<0.01) in the severity of the ocular inflammation was detected 24 hours after induction and intravenous treatment with the JNK inhibitor according to SEQ ID NO: 172 (“XG-104”) (1 mg/kg) administered 48 hours before EIU induction (mean score: 2.8±0.3), corresponding to a 40% (**) decrease of EIU scores compared with the score observed in vehicle group, 24 hours after induction and intravenous treatment with the JNK inhibitor according to SEQ ID NO: 172 (“XG-104”) (1 mg/kg) administered 1 week before EIU induction (mean score: 3.3±0.3), corresponding to a 27% (*) decrease of EIU scores compared with the score observed in vehicle group, and 24 hours after induction and intravenous treatment with the JNK inhibitor according to SEQ ID NO: 172 (“XG-104”) (1 mg/kg) administered 2 weeks before EIU induction (mean score: 3.0±0.2), corresponding to a 35% (**) decrease of EIU scores compared with the score observed in vehicle group. […]

[2] = tested on: endotoxins-induced uveitis albino rat model; assay: Endotoxins-induced uveitis (EIU), single intravenous injection, clinical scoring; assay type: in vivo; set-up: key to clinical score (mean±SEM) / clinical score, median: clinical ocular inflammation score per eye, 0 to 4; conditions: sub-conjunctival, 20 Dg/eye; 24 h after LPS
Description: The anti-inflammatory potency of the JNK inhibitor of SEQ ID NO: 172 was tested in albino rats following intravenous administration (EIU/LPS model). The aim of this study was to determine the effects of single intravenous injections of SEQ ID NO: 172 (0.015, 0.18, and 1.80 mg/kg) on the inflammatory response in an endotoxins-induced uveitis albino rat model and to compare these affects to those obtained with prior art JNK inhibitor of SEQ ID NO: 197 (2 mg/kg). As a further control served phosphate sodic dexamethasone (“reference”) and vehicle (0.9% NaCl).
Sixty (60) male Lewis rats were randomly divided into six (6) groups often (10) animals each. 0.9% NaCl (vehicle, “control”), SEQ ID NO: 197 at 2 mg/kg and SEQ ID NO: 172 at three concentrations (1.80 mg/kg, 0.18 mg/kg and 0.015 mg/kg) were administered by intravenous injection just before EIU induction (on the day of induction). Accordingly, phosphate sodic dexamethasone (20 Dg/eye, 5 μl; “reference”) was administered by a single sub-conjunctival injection in both eyes just before EIU induction (on the day of induction). EIU was induced by footpad injection of lipopolysaccharide (LPS, 1 mg/kg). 24 hours after LPS injection, inflammatory response was evaluated by clinical scoring.
The intensity of clinical ocular inflammation was scored on a scale from 0 to 4 for each eye: […]

[3] = tested on: established type II collagen arthritis in rats; assay: Chronic established type II collagen arthritis, daily IV 14 days; assay type: in vivo, rat
From the text: Rat collagen arthritis is an experimental model of polyarthritis that has been widely used for preclinical testing of numerous anti-arthritic agents that are either under preclinical or clinical investigation or are currently used as therapeutics in this disease. […] Animals were terminated on arthritis day 14.

[4] = vs disease controls, IV QD d1-14, Dex 0.05 mg/kg, SEQ ID NO: 172 up to 5 mg/kg

SMILES: CC(C)C[C@H](NC(=O)[C@H](CC(N)=O)NC(=O)[C@H](CC(C)C)NC(=O)[C@@H](NC(=O)[C@@H](NC(=O)[C@@H]1CCCN1C(=O)[C@H](CCCNC(=N)N)NC(=O)[C@H](CCCCN)NC(=O)[C@@H]1CCCN1C(=O)[C@@H]1CCCN1C(=O)[C@H](CCCNC(=N)N)NC(=O)[C@H](CCCNC(=N)N)NC(=O)[C@H](CCCNC(=N)N)NC(=O)[C@H](CCC(N)=O)NC(=O)[C@H](CCCNC(=N)N)NC(=O)[C@H](CCCNC(=N)N)NC(=O)[C@H](CCCCN)NC(=O)[C@H](CCCCN)NC(=O)[C@H](CCCNC(=N)N)NC(=O)CN)[C@@H](C)O)[C@@H](C)O)C(=O)N[C@@H](Cc1ccccc1)C(=O)N1CCC[C@H]1C(=O)N[C@@H](CCC(N)=O)C(=O)N[C@H](C(=O)N1CCC[C@H]1C(=O)N[C@@H](CCCNC(=N)N)C(=O)N[C@@H](CO)C(=O)N[C@@H](CCC(N)=O)C(=O)N[C@@H](CC(=O)O)C(N)=O)C(C)C [SEQ ID NO: 194] (H-GRKKRRQRRRPPKRPTTLNLFPQVPRSQD-NH2)
IC50 (hJNK2): 0.0127 µM
IC50 (hJNK3): 0.00259 µM
IC50 (hJNK1): 0.014 µM

SMILES: CC(C)C[C@H](NC(=O)[C@H](CC(N)=O)NC(=O)[C@H](CC(C)C)NC(=O)[C@@H](NC(=O)[C@@H](NC(=O)[C@@H]1CCCN1C(=O)[C@H](CCCNC(=N)N)NC(=O)[C@H](CCCNC(=N)N)NC(=O)[C@H](CCCNC(=N)N)NC(=O)[C@H](CCC(N)=O)NC(=O)[C@H](CCCNC(=N)N)NC(=O)[C@H](CCCNC(=N)N)NC(=O)[C@H](CCCCN)NC(=O)[C@H](CCCCN)NC(=O)[C@H](CCCNC(=N)N)NC(=O)CN)[C@@H](C)O)[C@@H](C)O)C(=O)N[C@@H](Cc1ccccc1)C(=O)N1CCC[C@H]1C(=O)N[C@@H](CCC(N)=O)C(=O)N[C@H](C(=O)N1CCC[C@H]1C(=O)N[C@@H](CCCNC(=N)N)C(=O)N[C@@H](CO)C(=O)N[C@@H](CCC(N)=O)C(=O)N[C@@H](CC(=O)O)C(N)=O)C(C)C [SEQ ID NO: 195] (H-GRKKRRQRRRPTTLNLFPQVPRSQD-NH2)
IC50 (hJNK2): 0.0113 µM
IC50 (hJNK3): 0.00492 µM
IC50 (hJNK1): 0.0108 µM

SMILES: CC(C)C[C@H](NC(=O)[C@H](CC(N)=O)NC(=O)[C@H](CC(C)C)NC(=O)[C@@H](NC(=O)[C@@H](NC(=O)[C@@H]1CCCN1C(=O)[C@H](CCCNC(=N)N)NC(=O)[C@H](CCCCN)NC(=O)[C@@H]1CCCN1C(=O)[C@H](CCCNC(=N)N)NC(=O)[C@@H]1CCCN1C(=O)[C@@H]1CCCN1C(=O)[C@H](CCCNC(=N)N)NC(=O)[C@H](CCCNC(=N)N)NC(=O)[C@H](CCCNC(=N)N)NC(=O)[C@H](CCC(N)=O)NC(=O)[C@H](CCCNC(=N)N)NC(=O)[C@H](CCCNC(=N)N)NC(=O)[C@H](CCCCN)NC(=O)[C@H](CCCCN)NC(=O)[C@H](CCCNC(=N)N)NC(=O)CN)[C@@H](C)O)[C@@H](C)O)C(=O)N[C@@H](Cc1ccccc1)C(=O)N1CCC[C@H]1C(=O)N[C@@H](CCC(N)=O)C(=O)N[C@H](C(=O)N1CCC[C@H]1C(=O)N[C@@H](CCCNC(=N)N)C(=O)N[C@@H](CO)C(=O)N[C@@H](CCC(N)=O)C(=O)N[C@@H](CC(=O)O)C(N)=O)C(C)C [SEQ ID NO: 196] (H-GRKKRRQRRRPPRPKRPTTLNLFPQVPRSQD-NH2)
IC50 (hJNK2): 0.00843 µM
IC50 (hJNK3): 0.00522 µM
IC50 (hJNK1): 0.0422 µM

IC50 (hJNK2; read-out: hJNK2 | IC50): 0.802 µM
IC50 (hJNK3; read-out: hJNK3 | IC50): 1.29 µM
IC50 (hJNK1; read-out: hJNK1 | IC50): 24.4 µM
SMILES: CC(C)C[C@@H](NC(=O)[C@@H](Cc1ccccc1)NC(=O)[C@H]1CCCN1C(=O)[C@@H](CCC(N)=O)NC(=O)[C@H](NC(=O)[C@H]1CCCN1C(=O)[C@@H](CCCNC(=N)N)NC(=O)[C@@H](CO)NC(=O)[C@@H](CCC(N)=O)NC(=O)[C@H](N)CC(=O)O)C(C)C)C(=O)N[C@H](CC(N)=O)C(=O)N[C@H](CC(C)C)C(=O)N[C@@H](C(=O)N[C@@H](C(=O)N1CCC[C@@H]1C(=O)N[C@H](CCCNC(=N)N)C(=O)N[C@H](CCCCN)C(=O)N1CCC[C@@H]1C(=O)N[C@H](CCCNC(=N)N)C(=O)N1CCC[C@@H]1C(=O)N1CCC[C@@H]1C(=O)N[C@H](CCCNC(=N)N)C(=O)N[C@H](CCCNC(=N)N)C(=O)N[C@H](CCCNC(=N)N)C(=O)N[C@H](CCC(N)=O)C(=O)N[C@H](CCCNC(=N)N)C(=O)N[C@H](CCCNC(=N)N)C(=O)N[C@H](CCCCN)C(=O)N[C@H](CCCCN)C(=O)N[C@H](CCCNC(=N)N)C(=O)NCC(N)=O)[C@H](C)O)[C@H](C)O [SEQ ID NO: 197, dqsrpvqpflnlttprkprpprrrqrrkkrg] (H-[dD][dQ][dS][dR][dP][dV][dQ][dP][dF][dL][dN][dL][dT][dT][dP][dR][dK][dP][dR][dP][dP][dR][dR][dR][dQ][dR][dR][dK][dK][dR]G-NH2)

SMILES: C[C@@H]1C[C@H]2[C@@H]3CCC4=CC(=O)C=C[C@]4(C)[C@@]3(F)[C@@H](O)C[C@]2(C)[C@@]1(O)C(=O)CO [dexamethasone, reference compound]
clinical score (mean±SEM) [1]: 1.4±0.2
decrease of clinical scores vs vehicle group [1]: 69%
clinical score (mean±SEM) [2]: 0.8±0.2
clinical score, median [2]: 0.5
ankle diameter AUC, reduction toward normal ([3]; 0.05 mg/kg IV QD d1-14): 97%
inhibition of body weight loss vs disease controls ([3]; 0.05 mg/kg IV QD d1-14): 21%
final paw weights, reduction toward normal ([3]; Dex 0.05 mg/kg IV QD d1-14): 114%
spleen weights relative to body weight [3, 4]: significantly (p<0.05 by ANOVA) reduced
thymus weights relative to body weight [3, 4]: significantly (p<0.05 by ANOVA) reduced
